{"source": "patent US4634706A", "about": "“Griseolic acid derivatives, and their use as enzyme inhibitors” (Sankyo Company Limited, priority 1983, dated 1987)", "key": {"blood viscosity": {"tested_on": "blood viscosity", "experiment": "Improvement in blood viscosity", "assay_type": "in vivo, male Wistar rats", "parameters": "key to blood viscosity, shear rates without significant rise after ligation: for each shear rate where no significant rise in […] was noted (P<0.05) between the pre-ligation and post-ligation values there is printed a single plus sign (+); ++++: no significant difference in viscosity between the pre-ligation and post-ligation values at any of the four shear rates", "details": "for minimal effective dose: Rattus norvegicus, read-out: dose at which significant improvement (i.e. stabilisation) in blood viscosity was achieved", "protocol": "The test animals were male Wistar rats; they were employed in groups of five for each test. The rats were anaesthetized with pentobartibal and simultaneously the test compound was administered orally at the dose specified in Table 5 in a carboxymethyl cellulose suspension. Promptly, an incision was made in the neck and a 0.5 ml blood sample was collected from the jugular vein. The viscosity of this sample was determined by means of a rotational viscometer.\nThirty minutes after oral administration, the common carotid artery was ligated bilaterally. One hour thereafter (i.e. 90 minutes after oral administration), a further 0.5 ml blood sample was collected from the jugular vein and its viscosity was determined in the same manner.\nThe mean blood viscosity of each test animal and its standard deviation were calculated for each of the four shear rates (37.5, 75, 150 and 375 s^-1) of the rotational viscometer. The pre-ligation and post-ligationvalues of each group (i.e. the change over a period of 60 minutes) were analysed by the statistical t-test. The results are reported in Table 5 as follows: for each shear rate where no significant rise in […] was noted (P<0.05) between the pre-ligation and post-ligation values there is printed a single plus sign (+). Thus, for example, if there was no significant difference in viscosity between the pre-ligation and post-ligation values at any of the four shear rates, the results will be ++++."}, "cGMP PDE": {"biological_target": "cGMP PDE", "experiment": "Phosphodiesterase (PDE) inhibitory activity, cGMP substrate", "assay_type": "biochemical", "details": "cGMP as substrate, crude enzyme from rat brains; read-out: I50 cGMP PDE", "protocol": "(§1) The test was carried out following essentially the method of A. L. Pichard and Y. U. Chung [Journal of Biological Chemistry, 251, 5726-5737 (1976)]. A crude enzymatic solution derived from rat brains was used as the source of cAMP PDE.\n(§2) ^14 C-labeled cAMP was used as the substrate. It was employed in a 0.2M Tris-hydrochloric acid buffer solution (pH 8.0) in an amount sufficient to provide a final concentration of 0.14 μM. \"Tris\" is tris(hydroxymethyl)aminomethane. The substrate solution was mixed with an appropriate amount of the compound under test dissolved in 2-5 μl of dimethyl sulfoxide and with 20 μl of a snake venom solution and 40 μl of the crude enzyme solution. Sufficient Tris-hydrochloric acid buffer was added to make a total volume of 100 μl. The mixture was allowed to react at 30° C. for 20 minutes. At the end of this time, the reaction mixture was treated with an Amberlite (trade mark) IRP-58 resin and the level of residual adenosine radioactivity in the product was determined.\nThe experiment was repeated, except that cyclic guanosine monophosphate (cGMP) was employed as the substrate instead of cAMP. The I50 value against cGMP PDE was also calculated."}, "cAMP PDE": {"biological_target": "cAMP PDE", "experiment": "Phosphodiesterase (PDE) inhibitory activity, cAMP substrate", "assay_type": "biochemical, rat", "protocol": "as §1, §2"}, "cerebral blood flow": {"tested_on": "cerebral blood flow", "experiment": "Improving cerebral blood flow", "assay_type": "in vivo, rabbit", "details": "10 mg/kg", "description": "The \"duration (T1/2)\" is the time in minutes required for the increase in cerebral blood flow to reduce by one half."}, "erythrocytes": {"tested_on": "erythrocytes", "experiment": "Effect on recovery of erythrocyte flexibility reduced by acidosis", "assay_type": "in vivo, rat", "details": "50 mg/kg orally, blood pH 5.1, P < 0.05", "protocol": "Mature male rats were employed in this experiment in groups of five for each test. The compound under test was suspended in an aqueous solution of carboxymethylcellulose and administered orally. Two hours after administration, the rats were anaesthetized with pentobarbital and a 5 ml blood sample was taken from the heart. Its pH was adjusted to 5.1 and the sample was allowed to stand. The fluidity of the erythrocytes was tested by a slightly modified version of the method reported in the Journal of Clinical Pathology, 29, 855-858 (1976). Control animals were treated similarly, except that the carboxymethylcellulose solution contained no active compound. The results are reported as the mean values for each group plus or minus the statistical error and the statistical significance was calculated by comparison with the control group."}, "[1]": {"tested_on": "brain of rats with cerebral ischaemia", "experiment": "Effect on sugar and high energy phosphate metabolism in the brain of rats with cerebral ischaemia", "assay_type": "in vivo, rat", "details": "1 mg/kg or 10 mg/kg intraperitoneal", "protocol": "Cerebral ischaemia was induced in rats and the sugar and high energy phosphate metabolism in the brain was investigated.\nBoth carotid arteries of the test rats were ligated and, at the same time, the compound under test was administered by intraperitoneal injection. The amounts of sugars and metabolic products thereof (glucose and lactic acid) and high energy phosphate (ATP-adenosine triphosphate) in the brain were determined by the method of Lowry and Passonneau (A flexible system of enzymatic analysis, Academic Press, New York, 1972). When Compound No. 131 was administered at levels of 1 mg/kg or 10 mg/kg, there was observed an increase in glucose levels, a decrease in lactic acid levels and an increase in ATP levels in the rats with cerebral ischaemia."}, "[2]": {"tested_on": "anoxia-induced cerebral dysfunction", "experiment": "Promotion of recovery from anoxia-induced cerebral dysfunction (EEG recovery)", "assay_type": "in vivo, rat", "details": "breathing terminated 120 seconds", "protocol": "In this experiment, the breathing of a rat was terminated for sufficient time for its EEG (electroencephalograph) trace to become flat and the time required for the EEG to show further activity after breathing had restarted was determined.\nThe rat was immobilized by the administration of pancuronium bromide, and its spontaneous EEG was recorded. After the rat had been roused from anaesthesia, the compound under test suspended in an aqueous solution of carboxymethylcellulose was administered intraperitoneally to the rat. Throughout the experiment, the rat was caused to breathe artificially; 30 minutes after administration of the test compound, artificial breathing was terminated for 120 seconds. After breathing again commenced, the time required for the EEG to recover (the recovery time) was determined.\nA control experiment was carried out in which a carboxymethylcellulose suspension alone was administered with no active compound.\nThe recovery time is reported in the Table in seconds as the mean of the recovery times of all of the animals in the relevant test group plus or minus the statistical error."}, "[3]": {"tested_on": "righting reflex and spontaneous locomotive activity", "experiment": "Brain concussive test", "assay_type": "in vivo", "details": "10 mg/kg intraperitoneally, 17 mice", "protocol": "The test compound, suspended in an aqueous solution of carboxymethylcellulose, was administered intraperitoneally to mice. After 30 minutes, a 16 g weight was dropped from a height of 50 cm onto the head of each mouse, and the time was measured for each mouse to recover its righting reflex and spontaneous locomotive activity.\nA similar experiment was carried out as a control, using the carboxymethylcellulose solution without any active compound.\nThe results are reported in Table 6 as the mean time (in seconds) plus or minus the statistical error. There were 20 mice in the control group and 17 mice in the group to which the test compound was administered."}, "rats": {"tested_on": "rats", "experiment": "Toxicity (mortality of male Fisher rats, daily doses for four days)", "assay_type": "in vivo, male rats of the Fisher strain", "details": "100 mg/kg daily", "protocol": "The compounds under test were griseolic acid and Compounds No. 26 and 51 from the list of compounds of the invention set out hereinabove. The test animals were male rats of the Fisher strain. The rats were employed in groups of five for each test.\nThe compounds under test were administered at single daily doses of 50 mg/kg or 100 mg/kg throughout the four days of the test."}}, "note": "pIC50: −log10 of the molar value."}
{"compound": "CCC(=O)Nc1ncnc2c1ncn2C1OC2=CC(C(=O)OC(c3ccccc3)c3ccccc3)(C(OC(=O)CC)C(=O)OC(c3ccccc3)c3ccccc3)OC2C1OC(=O)CC", "note": "(centres unmarked) [Compound No. 10, dibenzhydryl N^6,O^2',O^7' -tripropionylgriseolate]", "values": [{"measurement": "blood viscosity, shear rates without significant rise after ligation", "setting": "blood viscosity; 30 mg/kg oral", "value": "++++"}, {"measurement": "blood viscosity, shear rates without significant rise after ligation", "setting": "blood viscosity; 50 mg/kg oral", "value": "++++"}, {"measurement": "minimal effective dose", "setting": "blood viscosity; oral", "value": "≥ 50", "unit": "mg/kg"}]}
{"compound": "O=C(O)[C@H](O)C1(C(=O)O)C=C2OC(n3cnc4c(S)ncnc43)[C@H](O)C2O1", "note": "(some centres unmarked) [Compound No. 54, 6-desamino-6-mercaptogriseolic acid]", "values": [{"measurement": "pIC50", "setting": "cGMP PDE", "value": 5.04}, {"measurement": "minimal effective dose", "setting": "blood viscosity; oral", "value": "≥ 50", "unit": "mg/kg"}, {"measurement": "pIC50", "setting": "cAMP PDE; 0.14 μM 14C-labeled cAMP, pH 8.0, 30° C., 20 minutes, crude enzyme from rat brains, read-out: I50 cAMP PDE", "value": 4.72}]}
{"compound": "CC(=O)OC1C2OC(C(=O)OC(c3ccccc3)c3ccccc3)(C(OC(C)=O)C(=O)OC(c3ccccc3)c3ccccc3)C=C2OC1n1cnc2c(=O)[nH]cnc21", "note": "(centres unmarked) [Compound No. 71, dibenzhydryl O^2',O^7' -diacetyl-6-desamino-6-hydroxygriseolate]", "values": [{"measurement": "Duration (T 1/2)", "setting": "cerebral blood flow", "value": "> 1", "unit": "h"}, {"measurement": "Increase in cerebral blood flow (Vp), ratio to papaverine 1 mg/kg", "setting": "cerebral blood flow", "value": 3.0}, {"measurement": "Total number of passing erythrocytes × 10^9", "setting": "erythrocytes", "value": "3.00 ± 0.16 × 10^9"}]}
{"compound": "O=C(Nc1ncnc2c1ncn2C1OC2=CC(C(=O)O)([C@@H](OC(=O)c3ccccc3)C(=O)O)OC2[C@H]1OC(=O)c1ccccc1)c1ccccc1", "note": "(some centres unmarked) [Compound No. 131, N^6,O^2',O^7' -tribenzoylgriseolic acid]", "values": [{"measurement": "ATP levels in brain", "setting": "[1]", "value": "increase"}, {"measurement": "glucose levels in brain", "setting": "[1]", "value": "increase"}, {"measurement": "lactic acid levels in brain", "setting": "[1]", "value": "decrease"}, {"measurement": "Recovery time", "setting": "[2]; 10 mg/kg intraperitoneally, n=8", "value": "14.5 ± 1.2", "unit": "s"}, {"measurement": "Recovery time", "setting": "[2]; 30 mg/kg intraperitoneally, n=8, P < 0.05", "value": "13.8 ± 1.3", "unit": "s"}, {"measurement": "blood viscosity, shear rates without significant rise after ligation", "setting": "blood viscosity; 30 mg/kg oral", "value": "+"}, {"measurement": "blood viscosity, shear rates without significant rise after ligation", "setting": "blood viscosity; 100 mg/kg oral", "value": "++++"}, {"measurement": "minimal effective dose", "setting": "blood viscosity; oral", "value": "≥ 30", "unit": "mg/kg"}, {"measurement": "Total number of passing erythrocytes × 10^9", "setting": "erythrocytes", "value": "3.30 ± 0.28 × 10^9"}]}
{"compound": "Nc1ncnc2c1ncn2C1OC23OC(C(=O)OC(c4ccccc4)c4ccccc4)C(C(=O)OC(c4ccccc4)c4ccccc4)(OC2C1O)C3Br", "note": "(stereo not drawn) [Compound No. 202, dibenzhydryl 4',7'-anhydro-5'α-bromo-4'α-hydroxygriseolate]", "values": [{"measurement": "blood viscosity, shear rates without significant rise after ligation", "setting": "blood viscosity; 10 mg/kg oral", "value": "+"}, {"measurement": "dose levels at which significant improvement (i.e. stabilisation) in blood viscosity was achieved", "setting": "blood viscosity; oral, in words", "value": "all dose levels"}, {"measurement": "Recovery time, righting reflex", "setting": "[3]", "value": "20.9 ± 2.9", "unit": "s"}, {"measurement": "Recovery time, spontaneous locomotive activity", "setting": "[3]; P < 0.05", "value": "72.8 ± 15.7", "unit": "s"}]}
{"compound": "Nc1ncnc2c1ncn2C1OC2=CC(C(=O)O)([C@@H](O)C(=O)O)OC2[C@H]1O", "note": "(some centres unmarked) [Griseolic acid, griseolic acid]", "values": [{"measurement": "mortality after day 3", "setting": "rats; after day 3", "value": "3/5"}, {"measurement": "mortality for the first two days", "setting": "rats; first two days", "value": "0/5"}, {"measurement": "mortality at the end of the test", "setting": "rats; four days, male Fisher rats", "value": "3/5"}, {"measurement": "ability to inhibit cAMP phosphodiesterase", "setting": "cAMP PDE; in words", "value": "has the ability to inhibit the activity of cyclic adenosine monophosphate (cAMP) phosphodiesterase (PDE)"}]}
